{"source": "paper PMC4738305", "about": "“Metabolism and Disposition of Aditoprim in Swine, Broilers, Carp and Rats” (Scientific Reports, 2016)", "key": {"[1]": {"assay": "Radioactivity excretion (mass balance) after a single oral dose of ^3H-ADP", "format": "in vivo", "conditions": "single oral 5 mg/kg b. w., within 14 d", "experimental": "Animals (4 swine, 6 broilers, 6 carp, and 3 male and 3 female rats) were housed individually in clean, suspended wire-mesh metabolism cages, designed to separate the urine from the feces (carp were raised in individual aquaria). Each animal was weighed and assigned with a permanent identification number. A single dose of ^3 H-ADP (5 mg/kg b. w., 0.1 Ci/g) was administered via the oral gavage. Excreta were collected on ice at the pre-administration, in the period of 6, 12, and 24 h on day 1 d, and afterwards, intermittently in the period of 24 h up to 14 d. The piscine excreta were collected by changing and collecting raised water. The total volume or weight of each sample was measured and homogenized. The total radioactivity levels were determined through LSC for the recovery calculations. After the preparation, the samples were analyzed through LC/MS-IT-TOF with v. […] The pretreatment samples were used as controls to determine the background radioactivity or the endogenous nondrug-related ions observed within respective matrices or their extracts.\nMeasurements of the total radioactivity in each sample were conducted by Packard Tri-Carb 2900 TR liquid scintillation counter (PerkinElmer Life and Analytical Sciences). […] The actual radioactivity of each sample was calculated by subtracting the background value form the mean radioactivity in two blank samples. […]"}, "[2]": {"assay": "Tissue distribution and elimination of total radioactivity (total residues) after oral ^3H-ADP for 7 d", "format": "in vivo, swine", "experimental": "(0.1 Ci/g) through oral gavage for 7 consecutive days. All the animals were housed on the basis of their group in the cages or aquaria throughout the whole study period. A group of animals was slaughtered through exsanguination under diethyl ether inhalation of anesthesia in the period of 6 h, 1, 3, 7, 14, and 21 d after the administration. The blood samples were immediately collected into the heparinized tubes and was centrifuged at 1920 × g at 4 °C for 10 min to obtain the plasma. The tissues from the heart, liver, spleen, lung, kidney, craw (broilers), stomach, intestine, fat, skin, muscle, thymus, pancreas, bile, bladder, hair (scale for carp), genital gland, adrenal glands, swim bladder (carp), brain, lymph, and bursa (broilers) were carefully excised and collected. The tissues were thoroughly rinsed with the deionized water to remove the residuary blood, blotted to dryness, and finally to perform the homogenization. In order to avoid cross-contamination the dissecting instruments were washed during the tissue procurements. The blank tissues were collected in order to provide control matrices. The total radioactivity levels in each sample were determined through LSC. The samples extracted from the plasma, bile, and tissues of the liver, kidney, muscle, and fat/skin were analyzed through LC/MS-IT-TOF and v. ARC radiometric detection for metabolite profiling.\nMeasurements of the total radioactivity in each sample were conducted by Packard Tri-Carb 2900 TR liquid scintillation counter (PerkinElmer Life and Analytical Sciences). The detection time was 10 min for two cycles. The scintillation counter data were automatically corrected for counting efficiency by instrument-stored quench curve which was drawn with a series of sealed quenched […] standards. The actual radioactivity of each sample was calculated by subtracting the background value form the mean radioactivity in two blank samples. All the samples were analyzed in duplicate if the sample size allowed this. If the results were differed by more than 10% from the mean value, the samples were reanalyzed. The samples with LSC counts less than 2-fold of the level of the running background were considered to contain insufficient radioactivity for reliable quantification.\nAliquots of liquid samples (urine, plasma, bile and raised water, 200 μL) were mixed with 10 mL of Ultima Gold^TM scintillation fluid for the direct analysis by LSC. Aliquots of solid samples (feces and tissues, 200 mg) were digested overnight with 2 mL tissue solubilizer at 50 °C in a shaking water bath, followed by adding 200 μL of 0.1 mol/L EDTA-Na and 200 μL of 30% H2O2, and was bathed at 50 °C for 2 h to bleach. The obtained transparent liquid were mixed with 10 mL of scintillation fluid and finally were counted by LSC. The digestion efficiency was determined by using the blank samples spiked with ^3 H standard for digestion, and the measured radioactivity content in the digested samples were adjusted by using the digestion efficiency values.\nThe concentrations of ADP and/or its metabolites were analyzed by using the following equation: C = L/(2.22 × 10^9 × RM), where C is the concentration of ADP or/and its metabolites (mg/kg), L is the LSC count (dpm), R is the specific activity of the administered dose (0.1 Ci/g), and M is the weight or volume of samples (kg or L). The results are expressed as mean ± SD. The elimination kinetics of terminal phase for ADP and its metabolites were conducted by using the WinNonlin linear regression program (Pharsight corporation, Statistical consultants, Inc., Kentucky, USA)."}}, "data": [{"smiles": "COc1cc(Cc2cnc(N)nc2N)cc(OC)c1N(C)C", "note": "[A0, 2,4-Diamino-5-[4-(dimethylamino)-3,5-dimethoxybenzyl] pyrimidine]", "values": [{"measurement": "urine excretion of radioactivity", "setting": "[1]; rats", "result": "78 % of the administered dose"}, {"measurement": "urine excretion of radioactivity", "setting": "[1]; swine", "result": "78 % of the administered dose"}]}, {"smiles": "[3H]c1c(Cc2cnc(N)nc2N)cc(OC)c(N(C)C)c1OC", "note": "[^3H-ADP]", "values": [{"measurement": "Ke of total residues", "setting": "[2]; swine Adrenal", "result": 0.28}, {"measurement": "Ke of total residues", "setting": "[2]; swine Bile", "result": 0.71}, {"measurement": "Ke of total residues", "setting": "[2]; swine Bladder", "result": 0.50}, {"measurement": "Ke of total residues", "setting": "[2]; swine Blood", "result": 0.48}, {"measurement": "Ke of total residues", "setting": "[2]; swine Clothing hair", "result": 0.17}, {"measurement": "Ke of total residues", "setting": "[2]; swine Fat", "result": 0.20}, {"measurement": "Ke of total residues", "setting": "[2]; swine Heart", "result": 0.29}, {"measurement": "Ke of total residues", "setting": "[2]; swine Kidney", "result": 0.21}, {"measurement": "Ke of total residues", "setting": "[2]; swine Large Intestine", "result": 0.47}, {"measurement": "Ke of total residues", "setting": "[2]; swine Liver", "result": 0.16}, {"measurement": "Ke of total residues", "setting": "[2]; swine Lung", "result": 0.28}, {"measurement": "Ke of total residues", "setting": "[2]; swine Lymph", "result": 0.46}, {"measurement": "Ke of total residues", "setting": "[2]; swine Muscle", "result": 0.41}, {"measurement": "Ke of total residues", "setting": "[2]; swine Pancreas", "result": 0.27}, {"measurement": "Ke of total residues", "setting": "[2]; swine Skin", "result": 0.42}, {"measurement": "Ke of total residues", "setting": "[2]; swine Small Intestine", "result": 0.54}, {"measurement": "Ke of total residues", "setting": "[2]; swine Spleen", "result": 0.20}, {"measurement": "Ke of total residues", "setting": "[2]; swine Stomach", "result": 0.52}, {"measurement": "Ke of total residues", "setting": "[2]; swine Thymus", "result": 0.37}]}]}
